Results reported in patent publication US10202361B2, “Pyridazinones as herbicides” (E I DU PONT DE NEMOURS AND COMPANY, priority 2014, dated 2019).

Assays:
Assay in all cases: Test D pre-/postemergence controlled growth environment herbicide test
Assay type in all cases: in vivo
Conditions in all cases: scale 0 to 100
[1] = tested on: buckwheat, wild (wild buckwheat, Polygonum convolvulus)
Summary of the method: (§1)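 Preemergence: seeds sown in silt loam soil and sprayed with test chemicals in a non-phytotoxic solvent mixture containing surfactant. Postemergence: plants grown in peat/vermiculite planting medium and sprayed at 2 to 18 cm (1- to 4-leaf stage). Visual rating versus controls after 14 to 21 d, 0 (no effect) to 100 (complete control).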

[2] = tested on: downy bromegrass (Bromus tectorum)
Summary of the method: as §1

[3] = tested on: barley, winter (winter barley, Hordeum vulgare)
Summary of the method: as §1

[4] = tested on: oat, wild (wild oat, Avena fatua)
Summary of the method: as §1

[5] = tested on: radish, wild (wild radish, Raphanus raphanistrum)
Summary of the method: as §1

[6] = tested on: chamomile (scentless chamomile, Matricaria inodora)
Summary of the method: as §1

[7] = tested on: windgrass (Apera spica-venti)
Summary of the method: as §1

[8] = tested on: wheat, winter (winter wheat, Triticum aestivum)
Summary of the method: as §1

[9] = tested on: field poppy (Papaver rhoeas)
Summary of the method: as §1

[10] = tested on: oilseed rape (Brassica napus)
Summary of the method: as §1

[11] = tested on: chickweed (common chickweed, Stellaria media)
Summary of the method: as §1

Cc1cc(=O)n(-c2ccc(F)cc2)nc1Oc1ccnc(C(F)(F)F)c1 [Compound 14, 2-(4-fluorophenyl)-5-methyl-6-[[2-(trifluoromethyl)-4-pyridinyl]oxy]-3 (2H)-pyridazinone]
Plant response rating ([1]; Postemergence, 16 g ai/ha): 55 | Plant response rating ([1]; Postemergence, 31 g ai/ha): 55 | Plant response rating ([1]; Postemergence, 62 g ai/ha): 75 | Plant response rating ([1]; Postemergence, 125 g ai/ha): 70 | Plant response rating ([1]; Postemergence, 250 g ai/ha): 70 | Plant response rating ([1]; Preemergence, 16 g ai/ha): 15 | Plant response rating ([1]; Preemergence, 31 g ai/ha): 15 | Plant response rating ([1]; Preemergence, 62 g ai/ha): 25 | Plant response rating ([1]; Preemergence, 125 g ai/ha): 25 | Plant response rating ([1]; Preemergence, 250 g ai/ha): 100 | Plant response rating ([2]; Postemergence, 16 g ai/ha): 10 | Plant response rating ([2]; Postemergence, 31 g ai/ha): 10 | Plant response rating ([2]; Postemergence, 62 g ai/ha): 10 | Plant response rating ([2]; Postemergence, 125 g ai/ha): 20 | Plant response rating ([2]; Postemergence, 250 g ai/ha): 20 | Plant response rating ([2]; Preemergence, 16 g ai/ha): 0 | Plant response rating ([2]; Preemergence, 31 g ai/ha): 0 | Plant response rating ([2]; Preemergence, 62 g ai/ha): 0 | Plant response rating ([2]; Preemergence, 125 g ai/ha): 0 | Plant response rating ([2]; Preemergence, 250 g ai/ha): 0 | Plant response rating ([3]; Postemergence, 16 g ai/ha): 10 | Plant response rating ([3]; Postemergence, 31 g ai/ha): 15 | Plant response rating ([3]; Postemergence, 62 g ai/ha): 20 | Plant response rating ([3]; Postemergence, 125 g ai/ha): 20 | Plant response rating ([3]; Postemergence, 250 g ai/ha): 25 | Plant response rating ([3]; Preemergence, 16 g ai/ha): 15 | Plant response rating ([3]; Preemergence, 31 g ai/ha): 5 | Plant response rating ([3]; Preemergence, 62 g ai/ha): 5 | Plant response rating ([3]; Preemergence, 125 g ai/ha): 5 | Plant response rating ([3]; Preemergence, 250 g ai/ha): 5 | Plant response rating ([4]; Postemergence, 16 g ai/ha): 10 | Plant response rating ([4]; Postemergence, 31 g ai/ha): 10 | Plant response rating ([4]; Postemergence, 62 g ai/ha): 15 | Plant response rating ([4]; Postemergence, 125 g ai/ha): 20 | Plant response rating ([4]; Postemergence, 250 g ai/ha): 30 | Plant response rating ([4]; Preemergence, 16 g ai/ha): 0 | Plant response rating ([4]; Preemergence, 31 g ai/ha): 0 | Plant response rating ([4]; Preemergence, 62 g ai/ha): 0 | Plant response rating ([4]; Preemergence, 125 g ai/ha): 10 | Plant response rating ([4]; Preemergence, 250 g ai/ha): 20 | Plant response rating ([5]; Postemergence, 16 g ai/ha): 40 | Plant response rating ([5]; Postemergence, 31 g ai/ha): 80 | Plant response rating ([5]; Postemergence, 62 g ai/ha): 70 | Plant response rating ([5]; Postemergence, 125 g ai/ha): 75 | Plant response rating ([5]; Postemergence, 250 g ai/ha): 80 | Plant response rating ([5]; Preemergence, 16 g ai/ha): 100 | Plant response rating ([5]; Preemergence, 31 g ai/ha): 100 | Plant response rating ([5]; Preemergence, 62 g ai/ha): 100 | Plant response rating ([5]; Preemergence, 125 g ai/ha): 100 | Plant response rating ([5]; Preemergence, 250 g ai/ha): 100 | Plant response rating ([6]; Postemergence, 16 g ai/ha): 5 | Plant response rating ([6]; Postemergence, 31 g ai/ha): 10 | Plant response rating ([6]; Postemergence, 62 g ai/ha): 10 | Plant response rating ([6]; Postemergence, 125 g ai/ha): 20 | Plant response rating ([6]; Postemergence, 250 g ai/ha): 25 | Plant response rating ([6]; Preemergence, 16 g ai/ha): 5 | Plant response rating ([6]; Preemergence, 31 g ai/ha): 10 | Plant response rating ([6]; Preemergence, 62 g ai/ha): 25 | Plant response rating ([6]; Preemergence, 125 g ai/ha): 85 | Plant response rating ([6]; Preemergence, 250 g ai/ha): 80 | Plant response rating ([7]; Postemergence, 16 g ai/ha): 5 | Plant response rating ([7]; Postemergence, 31 g ai/ha): 5 | Plant response rating ([7]; Postemergence, 62 g ai/ha): 10 | Plant response rating ([7]; Postemergence, 125 g ai/ha): 10 | Plant response rating ([7]; Postemergence, 250 g ai/ha): 60 | Plant response rating ([7]; Preemergence, 16 g ai/ha): 10 | Plant response rating ([7]; Preemergence, 31 g ai/ha): 5 | Plant response rating ([7]; Preemergence, 62 g ai/ha): 5 | Plant response rating ([7]; Preemergence, 125 g ai/ha): 35 | Plant response rating ([7]; Preemergence, 250 g ai/ha): 65 | Plant response rating ([8]; Postemergence, 16 g ai/ha): 5 | Plant response rating ([8]; Postemergence, 31 g ai/ha): 10 | Plant response rating ([8]; Postemergence, 62 g ai/ha): 15 | Plant response rating ([8]; Postemergence, 125 g ai/ha): 15 | Plant response rating ([8]; Postemergence, 250 g ai/ha): 15 | Plant response rating ([8]; Preemergence, 16 g ai/ha): 0 | Plant response rating ([8]; Preemergence, 31 g ai/ha): 5 | Plant response rating ([8]; Preemergence, 62 g ai/ha): 5 | Plant response rating ([8]; Preemergence, 125 g ai/ha): 5 | Plant response rating ([8]; Preemergence, 250 g ai/ha): 10 | Plant response rating ([9]; Postemergence, 16 g ai/ha): 75 | Plant response rating ([9]; Postemergence, 31 g ai/ha): 20 | Plant response rating ([9]; Postemergence, 62 g ai/ha): 75 | Plant response rating ([9]; Postemergence, 125 g ai/ha): 50 | Plant response rating ([9]; Postemergence, 250 g ai/ha): 80 | Plant response rating ([9]; Preemergence, 16 g ai/ha): 95 | Plant response rating ([9]; Preemergence, 31 g ai/ha): 100 | Plant response rating ([9]; Preemergence, 62 g ai/ha): 100 | Plant response rating ([9]; Preemergence, 125 g ai/ha): 100 | Plant response rating ([9]; Preemergence, 250 g ai/ha): 100 | Plant response rating ([10]; Postemergence, 16 g ai/ha): 25 | Plant response rating ([10]; Postemergence, 31 g ai/ha): 50 | Plant response rating ([10]; Postemergence, 62 g ai/ha): 15 | Plant response rating ([10]; Postemergence, 125 g ai/ha): 45 | Plant response rating ([10]; Postemergence, 250 g ai/ha): 55 | Plant response rating ([10]; Preemergence, 16 g ai/ha): 0 | Plant response rating ([10]; Preemergence, 31 g ai/ha): 5 | Plant response rating ([10]; Preemergence, 62 g ai/ha): 10 | Plant response rating ([10]; Preemergence, 125 g ai/ha): 15 | Plant response rating ([10]; Preemergence, 250 g ai/ha): 70 | Plant response rating ([11]; Postemergence, 16 g ai/ha): 50 | Plant response rating ([11]; Postemergence, 31 g ai/ha): 60 | Plant response rating ([11]; Postemergence, 62 g ai/ha): 45 | Plant response rating ([11]; Postemergence, 125 g ai/ha): 70 | Plant response rating ([11]; Postemergence, 250 g ai/ha): 90 | Plant response rating ([11]; Preemergence, 16 g ai/ha): 10 | Plant response rating ([11]; Preemergence, 125 g ai/ha): 100 | Plant response rating ([11]; Preemergence, 250 g ai/ha): 95
